Experiments:
V1a = V1a (Rattus norvegicus, UniProt P30560); details: stated in literature; cited from earlier work
human V1a receptor [1] = biological target: T1, human V1a receptor (Homo sapiens, UniProt P37288); design: expressed in transfected cells; host or cells: HEK-293; details: stated in literature; cited from earlier work
NPY2 receptors = biological target: T2, NPY2 receptors (Homo sapiens, UniProt P49146); experiment: Neuropeptide Y receptor binding assay (125I-PYY, KAN-TS cell membranes); details: 10 μM compound; read-out: NPY-2@10, % Inh
T2 construct: Cell Membranes from KAN-TS cells having NPY2 receptors; endogenous in cells; host or cells: KAN-TS cells (membranes)
T2 sequence (P49146 1-381): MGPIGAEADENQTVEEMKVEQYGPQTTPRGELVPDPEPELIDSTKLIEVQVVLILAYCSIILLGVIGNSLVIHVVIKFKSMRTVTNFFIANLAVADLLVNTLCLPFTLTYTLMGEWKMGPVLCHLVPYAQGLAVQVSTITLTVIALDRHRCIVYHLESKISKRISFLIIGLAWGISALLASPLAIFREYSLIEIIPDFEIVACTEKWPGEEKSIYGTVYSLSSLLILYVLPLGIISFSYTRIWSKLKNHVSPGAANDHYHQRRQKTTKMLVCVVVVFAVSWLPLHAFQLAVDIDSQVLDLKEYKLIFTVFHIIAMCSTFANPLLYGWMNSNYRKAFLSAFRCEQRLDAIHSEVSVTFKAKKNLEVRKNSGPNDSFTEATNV
How it was run: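 Membranes from KAN-TS cells competed with 125I-PYY in binding buffer containing BSA, test compound at 10 μM final, 1 hr at room temperature. Nonspecific binding defined with 1 μM PYY final. Tubes centrifuged, washed with PBS and bound radioactivity gamma-counted.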

human V1a receptor [2] = biological target: T1, human V1a receptor; experiment: V1a binding assay (3H-AVP displacement, HEK-293 membranes); design: expressed in transfected cells; host or cells: HEK-293 (membranes); details: for inhibition at 1 µM: 1.0 μM compound, read-out: V1a@1.0, % Inh
How it was run: (§1)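 Membranes from transfected HEK-293 cells incubated 1 h at room temperature with ³H-AVP (10,000 cpm) in 50 mM Tris, 5 mM MgCl2, 0.1% BSA, pH 7.5 plus protease inhibitors. Non-specific binding set with 1.25 μM AVP. Bound tracer collected on PEI-soaked GF/C filters and counted by scintillation.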

human V1b receptor [3] = biological target: T3, human V1b receptor (Homo sapiens, UniProt P47901); experiment: V1b binding assay (3H-AVP displacement, HEK-293 membranes); design: expressed in transfected cells; host or cells: HEK-293 (membranes); details: 10 μM compound; read-out: V1b % Inh @10
T3 sequence (P47901 1-424): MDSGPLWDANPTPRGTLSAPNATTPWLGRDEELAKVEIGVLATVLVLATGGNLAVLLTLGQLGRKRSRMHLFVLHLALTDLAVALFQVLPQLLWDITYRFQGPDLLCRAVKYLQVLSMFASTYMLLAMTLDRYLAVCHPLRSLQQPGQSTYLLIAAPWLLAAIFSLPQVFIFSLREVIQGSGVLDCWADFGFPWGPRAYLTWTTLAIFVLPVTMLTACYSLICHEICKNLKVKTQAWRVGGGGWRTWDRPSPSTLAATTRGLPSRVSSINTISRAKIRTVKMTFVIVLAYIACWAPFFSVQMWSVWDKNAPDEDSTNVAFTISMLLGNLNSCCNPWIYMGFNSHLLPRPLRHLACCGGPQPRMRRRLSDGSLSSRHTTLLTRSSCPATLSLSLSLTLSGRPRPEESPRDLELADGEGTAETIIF
How it was run: as §1

human V2 receptor [4] = biological target: T4, human V2 receptor (Homo sapiens, UniProt P30518); experiment: V2 binding assay (3H-AVP displacement, HEK-293 membranes); design: expressed in transfected cells; host or cells: HEK-293 (membranes); details: for inhibition at 10 µM: 10 μM compound, read-out: V2 % Inh @10; for inhibition at 1 µM: 1.0 μM compound, read-out: V2@1.0, % Inh
T4 sequence (P30518 whole entry): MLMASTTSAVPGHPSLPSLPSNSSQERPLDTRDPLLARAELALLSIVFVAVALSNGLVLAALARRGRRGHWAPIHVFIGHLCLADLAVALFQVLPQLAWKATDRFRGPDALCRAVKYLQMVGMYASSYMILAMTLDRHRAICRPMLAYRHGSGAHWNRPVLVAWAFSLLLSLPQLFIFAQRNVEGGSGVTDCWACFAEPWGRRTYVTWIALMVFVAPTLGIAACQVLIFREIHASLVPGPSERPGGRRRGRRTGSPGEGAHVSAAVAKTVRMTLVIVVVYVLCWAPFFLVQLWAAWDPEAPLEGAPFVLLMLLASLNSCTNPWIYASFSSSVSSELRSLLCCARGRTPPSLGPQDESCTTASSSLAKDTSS
How it was run: as §1

human V1a receptor [5] = biological target: T1, human V1a receptor; experiment: V1a functional assay, intracellular calcium mobilization in transfected HEK-293 cells (FLIPR); design: expressed in transfected cells; host or cells: HEK-293; details: challenge 1 nM AVP; read-out: Cell-Based Functional activity V1a IC50
Procedure: (§2) V1a, V1b or V2 Functional Assay
(§3) HEK-293 cells were grown in DMEM media supplemented with 10% FBS and glutamine (Gibco BRL, Grand Island, N.Y.). Once transfected the cells were passed biweekly by trypsinization and seeded into 96 well plates at 33,000 cells per well. HEK-293 were transfected with human V1a, V1b or V2 DNA using DMRIE-C reagent from Life Technologies, Inc., Grand Island, N.Y. Cells were tested for their responsiveness to vasopressin 48 hours after transfection. Stable lines were generated by selecting cells grown in culture media containing geneticin (500 μg/ml, Life Technologies).
(§4) Intracellular calcium mobilization was measured in HEK-293 cells transfected to express either human V1a, oxytocin or V1b receptors. Cells were plated into black 96-well Packard Clear-View plates 4 to 7 days prior to use. The cells were loaded with fluo-3 AM (Molecular Probes, Inc., Eugene, Oreg.) in buffer (25 mM Hepes, 125 mM NaCl, 1 gm/l glucose, 0.1% BSA, 5 mM KCl, 0.5 mM CaCl2, 0.5 mM MgCl2, pH 7.45) containing Pluronic (Molecular Probes) Cells were incubated with 5 μM fluo-3 AM for 1 hour shielded from light at room temperature. Intracellular fluorescence was measured using FLIPR (fluorometric imaging plate reader; Molecular Devices, Inc., Sunnyvale, Calif.). The FLIPR protocol called for images to be collected at one second intervals with 50 μl of the test compound added after the initial 10 images. An additional 70 images were then taken to detect any compound agonistic activity. FLIPR then added 50 μl of agonist peptide and collected a final 40 images for quantitating compound antagonistic activity. V1a- and V1b-expressing HEK cells were challenged with 1 nM and 0.5 nM AVP, respectively. Oxytocin-expressing HEK cells were challenged with 0.5 nM oxytocin (Peninsula Labs).
(§5) The data from the cAMP accumulation and the calcium mobilization assays are expressed as IC50 values as determined from dose response curves.

human V1b receptor [6] = biological target: T3, human V1b receptor; experiment: V1b functional assay, intracellular calcium mobilization in transfected HEK-293 cells (FLIPR); assay type: cell-based; design: expressed in transfected cells; host or cells: HEK-293; details: HEK293; 30 μM compound; read-out: Cell-Based Functional activity V1b % Inh. @ 30
Procedure: as §2, §3, §4, §5

human V2 receptor [7] = biological target: T4, human V2 receptor; experiment: V2 functional assay, cAMP accumulation in transfected HEK-293 cells; assay type: cell-based; design: expressed in transfected cells; host or cells: HEK-293; details: HEK293; 30 μM compound; read-out: Cell-Based Functional activity V2 % Inh. @ 30
Procedure: as §2, §3
The accumulation of cAMP was measured in transfected HEK-293 expressing the human V2 receptor. The cells were cultured 4-7 days in 96-well plates. On the day of assay, cells were washed twice in assay media (DMEM/F12 containing 0.1% BSA). The cells were treated with the test compound for 5 minutes and then given AVP (1 nM) in assay media containing 1 mM isobutylmethylxanthine. After 5 minutes, 0.5 N HCl was added to disrupt the cells and solubilize cAMP. The cAMP content of 20 μl of the cell lysate in each well was measured using cAMP Flashplates (NEN Life Sciences). Data are expressed as pmol cAMP/well. While the assay is optimized to detect and quantitate antagonistic activity, agonistic activity would also be apparent at the higher concentrations of test compounds.
as §5

T1 sequence (P37288 whole entry): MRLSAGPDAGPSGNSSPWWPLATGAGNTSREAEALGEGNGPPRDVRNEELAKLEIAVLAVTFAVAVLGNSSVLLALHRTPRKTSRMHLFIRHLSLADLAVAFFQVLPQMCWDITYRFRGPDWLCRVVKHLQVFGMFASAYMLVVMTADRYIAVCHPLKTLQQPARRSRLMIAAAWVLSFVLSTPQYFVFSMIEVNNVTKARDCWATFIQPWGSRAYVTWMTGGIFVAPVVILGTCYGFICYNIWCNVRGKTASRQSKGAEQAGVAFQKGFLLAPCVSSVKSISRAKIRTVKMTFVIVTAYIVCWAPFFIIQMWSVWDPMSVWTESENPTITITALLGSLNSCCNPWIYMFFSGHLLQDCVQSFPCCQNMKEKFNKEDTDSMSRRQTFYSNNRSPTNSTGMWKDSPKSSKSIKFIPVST
Chain of V1a (P30560 whole entry): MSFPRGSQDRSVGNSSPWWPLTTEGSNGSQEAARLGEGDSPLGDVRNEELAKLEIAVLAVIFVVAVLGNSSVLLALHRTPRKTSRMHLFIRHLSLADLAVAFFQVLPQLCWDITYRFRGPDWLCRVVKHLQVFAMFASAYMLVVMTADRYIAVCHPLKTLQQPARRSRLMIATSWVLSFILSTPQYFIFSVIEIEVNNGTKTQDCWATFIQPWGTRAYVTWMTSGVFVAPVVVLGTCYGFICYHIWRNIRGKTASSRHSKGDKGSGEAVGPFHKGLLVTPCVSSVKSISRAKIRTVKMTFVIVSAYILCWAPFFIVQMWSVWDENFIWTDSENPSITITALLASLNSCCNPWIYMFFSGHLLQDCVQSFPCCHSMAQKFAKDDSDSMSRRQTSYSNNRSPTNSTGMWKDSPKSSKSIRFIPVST

SMILES	activity in rat (V1a)	activity when tested for binding to human V1a receptor (human V1a receptor [1])	inhibition at 10 µM (NPY2 receptors) [%]	melting point [°C]	IC50 (human V1a receptor [2]) [nM]	inhibition at 10 µM (human V1b receptor [3]) [%]	inhibition at 10 µM (human V2 receptor [4]) [%]	inhibition at 1 µM (human V1a receptor [2]) [%]	inhibition at 1 µM (human V2 receptor [4]) [%]	IC50 (human V1a receptor [5]) [nM]	inhibition at 30 µM (human V1b receptor [6]) [%]	inhibition at 30 µM (human V2 receptor [7]) [%]
CC(=O)NCCCOc1ccc(C(=O)N2CCC(N3C(=O)CCc4ccccc43)CC2)cc1 [OPC 21268]	only active in rat	no activity										
O=c1[nH]c2ccccc2n1C1CCN(C(=S)NCc2ccccc2Cl)CC1 [Compound 12]			21	181 to 184	2500	0	5					
O=c1[nH]c2ccccc2n1C1CCN(C(=S)Nc2ccccc2)CC1 [Compound 3]			13	250 to 252		0		0	7			
COc1ccc(NC(=S)N2CCC(n3c(=O)[nH]c4ccccc43)CC2)cc1 [Compound 5]			14	238 to 243		8		38	34			
O=c1[nH]c2ccccc2n1C1CCN(C(=S)NCCc2ccc(Cl)cc2)CC1 [Compound 2]			1	234 to 236		0		21	7			
O=c1[nH]c2ccccc2n1C1CCN(C(=S)NCC(c2ccccc2)c2ccccc2)CC1 [Compound 13]			22	230 to 233	1200	1	4					
COC(=O)[C@@H](Cc1ccccc1)NC(=S)N1CCC(n2c(=O)n(CCCNC(=N)N)c3ccccc32)CC1 [Compound 58]			2					52		1430	0	0

— patent US6653478B2, “Substituted benzimidazol-2-ones as vasopressin receptor antagonists and neuropeptide Y modulators” (Ortho-McNeil Pharmaceutical, Inc., priority 2000, dated 2003)
